Laboratory results published in patent USRE50083E1, “URAT1 inhibitor and use thereof” (Jiangsu Atom Bioscience and Pharmaceutical Co., Ltd., priority 2016, dated 2024).
Like-named read-outs stand apart in the source and are kept apart here.

Molecular target: T1, hURAT1 (Homo sapiens, UniProt Q96S37)
T1 sequence (Q96S37 1-553): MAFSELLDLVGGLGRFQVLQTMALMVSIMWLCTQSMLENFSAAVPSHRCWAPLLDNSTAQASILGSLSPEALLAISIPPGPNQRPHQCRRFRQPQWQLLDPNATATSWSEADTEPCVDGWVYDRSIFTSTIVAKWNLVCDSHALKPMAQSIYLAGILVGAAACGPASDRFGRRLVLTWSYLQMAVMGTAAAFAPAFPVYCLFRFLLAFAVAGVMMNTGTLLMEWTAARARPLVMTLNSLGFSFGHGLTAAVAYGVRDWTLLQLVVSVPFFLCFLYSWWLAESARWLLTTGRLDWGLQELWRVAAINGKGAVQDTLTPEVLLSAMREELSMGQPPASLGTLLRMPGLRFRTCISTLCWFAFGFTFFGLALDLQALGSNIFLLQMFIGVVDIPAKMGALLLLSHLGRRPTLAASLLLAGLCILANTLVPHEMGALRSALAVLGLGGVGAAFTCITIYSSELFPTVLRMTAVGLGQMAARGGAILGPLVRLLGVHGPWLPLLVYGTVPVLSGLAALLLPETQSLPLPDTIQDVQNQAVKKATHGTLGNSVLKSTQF
Assay: Inhibition assay of uric acid transport in HEK293-hURAT1 transfection cell line (14C-uric acid uptake)
Type: cell-based
Conditions: for inhibition at 0.5 µM: read-out: Inhibitory rates of uric acid transport, ±SD (%); for inhibitory effect on uric acid transport (in words): 500 nM, in comparison with the control drug benzbromarone
Method: 1. Construction of a HEK293 Cell Line with High Expression of hURAT1:
The plasmid pCMV6-hURAT1 was transfected into HEK293 cells, and then the stable strain was obtained by the G418 (final concentration of 500 μg/mL) resistance screening, which is the high expression of hURAT1 transporter membrane protein. […] The HEK293 cells are the human embryonic kidney cells with high transfection efficiency, and are a very commonly used engineering cell line for expressing exogenous genes.
2. To a coated 24-well plate was added 200 μl of 0.1 mg/mL poly-lysine per well and the plate was left overnight. Poly-lysine was removed from wells. The wells were cleaned thoroughly with sterile water and dried for use.
3. To the above coated 24-well plate was added HEK293-hURAT1 stable cells (2×10^5 cells per well). The cells were cultured at 37° C. under 5% CO2 for 3 days.
4. […] The solution was fully mixed to give HBSS (pH value: 7.4). The buffer was stored at −20° C.
5. The HBSS buffer was warmed to 37° C. in a water bath. Taken out the 24-well plate with HEK293-hURAT1 stable cells, removed the culture medium and washed cells with HBSS, then added 160 μL of HBSS and 20 μL test compound per well. The final concentration of tested compound per well is 500 nM. The blank control well contains only 180 μL of HBSS without tested compound. The plate was placed at room temperature for 10 min.
6. To each well was added 20 μL of 50 μM ^14C-Uric acid. The 24-well plate was placed at room temperature for 20 min.
7. The solution in each well was removed and the cells were washed with the pre-cooled HBSS buffer. To each well was added 0.2 M NaOH to dissolve the cells. The solution containing cell fragments was collected and the right amount of scintillation liquid was added.
8. The formula for calculating the inhibitory rate of uric acid transport for compounds was shown as below (Table 1), the CPM value of the tested compounds was represented by CPM(tested compound) and the CPM value of the blank control was represented by CPM(blank control).

[1] = 500 nM compound concentration, HEK293-hURAT1 transfection cell line, 14C-uric acid, mean of three tests ± SD
[2] = HEK293-hURAT1 transfection cell line

Row | Structure (SMILES) | inhibition at 0.5 µM [1] | inhibitory effect on uric acid transport (in words) [2] | inhibition at 0.5 µM
1 | CCc1nc2cnccn2c1C(O)c1cc(Br)c(O)c(Br)c1 (stereo not shown) [Compound 23, 2,6-dibromo-4-[(2-ethylimidazo[1,2-a]pyrazine-3-yl)-hydroxymethyl]phenol] | 50.2 ± 1.02% | very good inhibitory effects | 
2 | CCc1nc2ccccn2c1C(O)c1cc(C)c(O)c(Br)c1 (stereo not shown) [Compound 54, 2-bromo-4-(2-ethylimidazo[1,2-a]pyridine-3-yl)-hydroxymethyl-6-methylphenol] | 42.9 ± 3.44% |  | 
3 | CCc1nn2ccccc2c1C(O)c1cc(Br)c(O)c(Br)c1 (stereo not shown) [Compound 35, 2,6-dibromo-4-[(2-ethylpyrazolo[1,5-a]pyridine-3-yl)-hydroxymethyl]phenol] | 36.3 ± 1.79% |  | 
4 | CCc1nc2sccn2c1C(O)c1cc(Br)c(O)c(Br)c1 (stereo not shown) [Compound 22, 2,6-dibromo-4-[(6-ethylimidazo[2,1-b]thiazole-5-yl)-hydroxymethyl]phenol] | 48.2 ± 3.86% |  | 
5 | CCc1nc2scnn2c1C(=O)c1cc(Br)c(O)c(Br)c1 [Compound 49, (3,5-dibromo-4-hydroxyphenyl)(6-ethylimidazo-[2,1-b][1,3,4]thiadiazole-5-yl)methanone] | 31.91 ± 0.23% |  | 
6 | CCc1oc2ccccc2c1C(O)c1cc(Br)c(O)c(Br)c1 (stereo not shown) [Compound 42, 2,6-dibromo-4-[(2-ethylbenzofuran-3-yl)-hydroxymethyl]phenol] |  |  | 37.4 ± 2.36%
7 | CCc1nc2ccc(Br)cn2c1C(O)c1cc(Br)c(O)c(Br)c1 (stereo not shown) [Compound 40, 2,6-dibromo-4-[(6-bromo-2-ethylimidazo[1,2-a]-pyridine-3-yl)hydroxymethyl]phenol] | 51.7 ± 2.43% | very good inhibitory effects | 
8 | CCc1oc2ccccc2c1C(OC)c1cc(Br)c(O)c(Br)c1 (stereo not shown) [Compound 58, 2,6-dibromo-4-[(2-ethylbenzofuran-3-yl)(methoxy)-methyl]phenol] | 48.7 ± 5.61% |  | 
9 | CCc1nc2ccccn2c1C(O)c1cc(Br)c(O)c(C#N)c1 (stereo not shown) [Compound 20, 3-bromo-5-[(2-ethylimidazo[1,2-a]pyridine-3-yl)-hydroxymethyl]-2-hydroxybenzonitrile] | 62.1 ± 1.26% | very good inhibitory effects | 
10 | CCc1nc2ncccn2c1C(=O)c1cc(Br)c(O)c(Br)c1 [Compound 4, (3,5-dibromo-4-hydroxyphenyl)(2-ethylimidazo[1,2-a]-pyrimidine-3-yl)methanone] | 50 ± 5.38% |  | 
11 | CCc1nc2sccn2c1C(=O)c1cc(Br)c(O)c(Br)c1 [Compound 8, (3,5-dibromo-4-hydroxyphenyl)(6-ethylimidazo[2,1-b]-thiazole-5-yl)methanone] | 55.2 ± 3.94% | very good inhibitory effects | 
12 | CCc1nc2ccccn2c1C(O)c1ccc(O)c(C#N)c1 (stereo not shown) [Compound 21, 5-[(2-ethylimidazo[1,2-a]pyridine-3-yl)hydroxymethyl]-2-hydroxybenzonitrile] | 33 ± 7.33% |  | 
13 | CCc1nc2ccc(F)cn2c1C(O)c1cc(F)c(O)c(Br)c1 (stereo not shown) [Compound 28, 2-bromo-4-[(2-ethyl-6-fluoroimidazo[1,2-a]pyridine-3-yl)hydroxymethyl]-6-fluorophenol] | 41.2 ± 1.92% |  | 
14 | CCc1nc2cnccn2c1C(=O)c1cc(Br)c(O)c(Br)c1 [Compound 12, (3,5-dibromo-4-hydroxyphenyl)(2-ethylimidazo[1,2-a]-pyrazine-3-yl)methanone] | 51.31 ± 0.16% | very good inhibitory effects | 
15 | CCc1nc2cc(C(F)(F)F)ccn2c1C(O)c1cc(Br)c(O)c(Br)c1 (stereo not shown) [Compound 41, 2,6-dibromo-4-{[2-ethyl-7-(trifluoromethyl)-imidazo[1,2-a]pyridine-3-yl]hydroxymethyl}phenol] | 37.4 ± 5.52% |  | 
16 | CCc1nc2cc(OC)ccn2c1C(O)c1cc(Br)c(O)c(Br)c1 (stereo not shown) [Compound 64, 2,6-dibromo-4-{(2-ethyl-7-methoxyimidazo[1,2-a]-pyridine-3-yl)hydroxymethyl}phenol] | 39.9 ± 5.34% |  | 
17 | CCc1oc2ccccc2c1C(=O)c1cc(Br)c(O)c(Br)c1 [Benzbromarone, (3,5-dibromo-4-hydroxy-'phenyl)(2-ethylbenzofuran-3-yl)-methanone, reference compound] |  |  | 54.8 ± 5.12%
